These results are taken from patent publication US10065950B2, “Substituted thiazoles as HIV integrase inhibitors” (Japan Tobacco Inc., priority 2010, dated 2018).

For this experiment, the target named is HIV-1 pNL4-3 integrase (Human immunodeficiency virus type 1 group M subtype B (isolate NY5) (HIV-1), UniProt P12497). Put plainly: Determination of enzyme (HIV integrase) inhibitory activity. It counts as biochemical. The note with it: calculated from inhibition rate (fluorescence). A digest of the protocol: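 Full-length pNL4-3 integrase from E. coli (0.75 μM stock) reacted 60 min at 37° C with compound and biotinylated donor DNA bound to streptavidin plates, in MOPS buffer with 5 mM MgCl2 and 10% DMSO. Digoxigenin-labelled target DNA (25 nM stock) then added for 20 min; strand transfer read by peroxidase anti-digoxigenin fluorescence (Ex 325/Em 420 nm).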

One may read the IC50 as the concentration that gives 50% inhibition. For `CC(C)C(=O)N(C)C[C@@H]1Cn2cc(-c3nnc(Cc4ccc(F)cc4F)s3)c(=O)c(O)c2C(=O)N1C(C)C` [Example 159], the IC50 is 6.6 nM.

As to `CNC(=O)C1CN(C)C(=O)c2c(O)c(=O)c(-c3ncc(Cc4ccc(F)cc4F)s3)cn21` (stereo not drawn) [Example 160], the IC50 is 6.1 nM.

As to `CCN(C)C(=O)C1(C)CN(C)C(=O)c2c(O)c(=O)c(-c3ncc(Cc4ccc(F)cc4F)s3)cn21` (stereo not drawn) [Example 161], the half-maximal inhibitory concentration (IC50) was 7.8 nM.

Turning to `CCNC(=O)C1(C)CN(CC)C(=O)c2c(O)c(=O)c(-c3ncc(Cc4ccc(F)cc4F)s3)cn21` (stereo not drawn) [Example 162], the IC50 was 7.1 nM.

Regarding `CC(=O)N(C)C[C@@H]1Cn2cc(-c3nnc(Cc4ccc(F)cc4)s3)c(=O)c(O)c2C(=O)N1C(C)C` [Example 163], the IC50 is 7.7 nM.

Turning to `CN(C)C(=O)CC1CN(C2CC2)C(=O)c2c(O)c(=O)c(-c3ncc(Cc4ccc(F)cc4F)s3)cn21` (stereo not drawn) [Example 164], the IC50 was 6.5 nM.

On to `CCNC(=O)CC1CN(C2CC2)C(=O)c2c(O)c(=O)c(-c3ncc(Cc4ccc(F)cc4F)s3)cn21` (stereo not drawn) [Example 165], for which the IC50 is 7.4 nM.

With `CC[C@H](C)N1C[C@@H](COC)n2cc(-c3nnc(Cc4ccc(F)cc4)s3)c(=O)c(O)c2C1=O` [Example 166], the IC50 was 12 nM.

Turning to `CC[C@@H](C)N1C[C@@H](COC)n2cc(-c3nnc(Cc4ccc(F)cc4)s3)c(=O)c(O)c2C1=O` [Example 167], the IC50 is 10 nM.

For the compound `COC[C@@H]1Cn2cc(-c3ncc(Cc4ccc(F)cc4F)s3)c(=O)c(O)c2C(=O)N1C(C)C` [Example 168], the IC50 was 5.8 nM.

Take `CC(C)N1C[C@](C)(C(=O)N(C)C)n2cc(-c3nnc(Cc4ccc(F)cc4F)s3)c(=O)c(O)c2C1=O` [Example 169]: the IC50 was 12 nM.

On to `CC(C)N1C[C@](C)(C(=O)N2CCCC2)n2cc(-c3nnc(Cc4ccc(F)cc4F)s3)c(=O)c(O)c2C1=O` [Example 170], for which the IC50 was 12 nM.

Take `CC(C)N1C[C@@](C)(C(=O)N(C)C)n2cc(-c3nnc(Cc4ccc(F)cc4F)s3)c(=O)c(O)c2C1=O` [Example 171]: the IC50 was 16 nM.

Turning to `CC(C)N1C[C@@](C)(C(=O)N2CCCC2)n2cc(-c3nnc(Cc4ccc(F)cc4F)s3)c(=O)c(O)c2C1=O` [Example 172], the half-maximal inhibitory concentration (IC50) was 14 nM.

As to `CCNC(=O)[C@@]1(C)CN(C(C)C)C(=O)c2c(O)c(=O)c(-c3nnc(Cc4ccc(F)cc4F)s3)cn21` [Example 173], the 50% inhibitory concentration (IC50) was 16 nM.

In the case of `CCNC(=O)[C@]1(C)CN(C(C)C)C(=O)c2c(O)c(=O)c(-c3nnc(Cc4ccc(F)cc4F)s3)cn21` [Example 174], the IC50 was 14 nM.

With `CC(C)N1CC2(CC2)n2cc(-c3nnc(Cc4ccc(F)cc4)s3)c(=O)c(O)c2C1=O` [Example 175], the IC50 is 9.5 nM.

As for `CC(C)N1C(=O)c2c(O)c(=O)c(-c3nnc(Cc4ccc(F)cc4)s3)cn2CC12CC2` [Example 176], the IC50 was 8.5 nM.

`CC(C)N1C[C@](C)(C(=O)N(C)C)n2cc(-c3nnc(Cc4ccc(F)cc4)s3)c(=O)c(O)c2C1=O` [Example 177]: the half-inhibitory concentration (IC50) is 17 nM.

`CN(C)C(=O)[C@@]1(C)CN(C2CC2)C(=O)c2c(O)c(=O)c(-c3nnc(Cc4ccc(F)cc4)s3)cn21` [Example 178]: the IC50 was 20 nM.

For `CC(C)N1C[C@](C)(C(=O)N2CCCC2)n2cc(-c3nnc(Cc4ccc(F)cc4)s3)c(=O)c(O)c2C1=O` [Example 179], the IC50 was 19 nM.

`CCNC(=O)[C@@]1(C)CN(C(C)C)C(=O)c2c(O)c(=O)c(-c3nnc(Cc4ccc(F)cc4)s3)cn21` [Example 180]: the IC50 was 10 nM.

For the compound `CN(C)C(=O)[C@@]1(C)CN(C(C)(C)C)C(=O)c2c(O)c(=O)c(-c3nnc(Cc4ccc(F)cc4)s3)cn21` [Example 181], the concentration for half-maximal inhibition (IC50) was 14 nM.

Consider `CC(C)N1C(=O)c2c(O)c(=O)c(-c3nnc(Cc4ccc(F)cc4)s3)cn2C[C@H]1CN(C)C(=O)C(C)(C)C` [Example 182], for which the IC50 is 9.7 nM.

Take `CCC(C)(C)C(=O)N(C)C[C@@H]1Cn2cc(-c3nnc(Cc4ccc(F)cc4)s3)c(=O)c(O)c2C(=O)N1C(C)C` [Example 183]: the IC50 was 10 nM.

`CC(C)N1C(=O)c2c(O)c(=O)c(-c3nnc(Cc4ccc(F)cc4F)s3)cn2C[C@H]1CN(C)C(=O)C(C)(C)C` [Example 184]: the IC50 was 6 nM.

`CNC(=O)[C@@]1(C)CN(C(C)C)C(=O)c2c(O)c(=O)c(-c3nnc(Cc4ccc(F)cc4)s3)cn21` [Example 185]: the IC50 was 15 nM.

Turning to `CC(C)CNC(=O)[C@@]1(C)CN(C(C)C)C(=O)c2c(O)c(=O)c(-c3nnc(Cc4ccc(F)cc4)s3)cn21` [Example 186], the IC50 was 18 nM.

As for `CCNC(=O)[C@@]1(C)CN(C2CC2)C(=O)c2c(O)c(=O)c(-c3nnc(Cc4ccc(F)cc4)s3)cn21` [Example 187], the IC50 is 19 nM.

`CC(C)(C)N1C[C@](C)(C(=O)N2CCCC2)n2cc(-c3nnc(Cc4ccc(F)cc4)s3)c(=O)c(O)c2C1=O` [Example 188]: the IC50 is 18 nM.

With `CCNC(=O)[C@@]1(C)CN(C(C)(C)C)C(=O)c2c(O)c(=O)c(-c3nnc(Cc4ccc(F)cc4)s3)cn21` [Example 189], the IC50 is 20 nM.

Turning to `CNC(=O)[C@]1(C)CN(C(C)C)C(=O)c2c(O)c(=O)c(-c3nnc(Cc4ccc(F)cc4F)s3)cn21` [Example 190], the IC50 was 11 nM.

Regarding `CNC(=O)[C@@]1(C)CN(C(C)C)C(=O)c2c(O)c(=O)c(-c3nnc(Cc4ccc(F)cc4F)s3)cn21` [Example 191], the IC50 is 12 nM.

`CC(C)N1C[C@@H](C(C)(C)C)n2cc(-c3nnc(Cc4ccc(F)cc4)s3)c(=O)c(O)c2C1=O` [Example 192]: the IC50 was 15 nM.

Take `CC(C)N1C[C@H](C(C)(C)C)n2cc(-c3nnc(Cc4ccc(F)cc4)s3)c(=O)c(O)c2C1=O` [Example 193]: the IC50 is 11 nM.

As to `CC(C)[C@H]1CN(C(C)C)C(=O)c2c(O)c(=O)c(-c3nnc(Cc4ccc(F)cc4)s3)cn21` [Example 194], the IC50 is 8.2 nM.

On to `COC[C@@H]1Cn2cc(-c3nnc(Cc4ccc(F)cc4)s3)c(=O)c(O)c2C(=O)N1C1CCC1` [Example 195], for which the IC50 was 5.9 nM.

For `COC[C@@H]1Cn2cc(-c3nnc(Cc4ccc(F)cc4)s3)c(=O)c(O)c2C(=O)N1C1CCCC1` [Example 196], the IC50 is 6.7 nM.

Turning to `CC(=O)N(C)C[C@@]1(C)CN(C(C)C)C(=O)c2c(O)c(=O)c(-c3nnc(Cc4ccc(F)cc4F)s3)cn21` [Example 197], the IC50 was 14 nM.

Turning to `COC[C@@H]1Cn2cc(-c3nnc(Cc4ccc(F)cc4)s3)c(=O)c(O)c2C(=O)N1C(C)C1CC1` (stereo partly drawn) [Example 198], the IC50 was 5.7 nM.

For the compound `CCN1C[C@](C)(C(=O)N(C)C)n2cc(-c3nnc(Cc4ccc(F)cc4)s3)c(=O)c(O)c2C1=O` [Example 199], the IC50 was 8.4 nM.

Regarding `CCN1C[C@](C)(C(=O)N2CCCC2)n2cc(-c3nnc(Cc4ccc(F)cc4)s3)c(=O)c(O)c2C1=O` [Example 200], the IC50 was 9.6 nM.

As to `CCNC(=O)[C@@]1(C)CN(CC)C(=O)c2c(O)c(=O)c(-c3nnc(Cc4ccc(F)cc4)s3)cn21` [Example 201], the IC50 was 9.5 nM.

`COCCN(C)C(=O)[C@@]1(C)CN(C(C)C)C(=O)c2c(O)c(=O)c(-c3nnc(Cc4ccc(F)cc4)s3)cn21` [Example 202]: the IC50 is 13 nM.

Regarding `CC(C)N1C[C@](C)(C(=O)N2CCOCC2)n2cc(-c3nnc(Cc4ccc(F)cc4)s3)c(=O)c(O)c2C1=O` [Example 203], the IC50 was 13 nM.
